What was measured:
Assay type in all cases: in vivo
Details in all cases: 250 g/ha, evaluated after 13 days, five-point scale
[1] = system: Amaranthus palmeri (AMAPA); assay: Pre-emergence herbicide glasshouse test
Outline: (§1)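 Spray at 250 g/ha (unless stated), acetone/water 50:50 + 0.5% Tween 20; pre-em 1 d post-sowing, post-em after 8 d growth. Glasshouse 24/16 °C, 14 h light, 65% RH, watered twice daily. % damage read at 13 d, scored 1 (0–20%) to 5 (81–100%).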

[2] = system: Amaranthus retoflexus (AMARE); assay: Pre-emergence herbicide glasshouse test
Outline: as §1

[3] = system: Echinochloa crus-galli (ECHCG); assay: Pre-emergence herbicide glasshouse test
Outline: as §1

[4] = system: Setaria faberi (SETFA); assay: Pre-emergence herbicide glasshouse test
Outline: as §1

[5] = system: Ipomoea hederacea (IPOHE); assay: Pre-emergence herbicide glasshouse test
Outline: as §1

[6] = system: Amaranthus palmeri (AMAPA); assay: Post-emergence herbicide glasshouse test
Outline: as §1

[7] = system: Amaranthus retoflexus (AMARE); assay: Post-emergence herbicide glasshouse test
Outline: as §1

[8] = system: Echinochloa crus-galli (ECHCG); assay: Post-emergence herbicide glasshouse test
Outline: as §1

[9] = system: Setaria faberi (SETFA); assay: Post-emergence herbicide glasshouse test
Outline: as §1

[10] = system: Ipomoea hederacea (IPOHE); assay: Post-emergence herbicide glasshouse test
Outline: as §1

| Compound | percentage damage caused to the plant, AMAPA [1] | percentage damage caused to the plant, AMARE [2] | percentage damage caused to the plant, ECHCG [3] | percentage damage caused to the plant, SETFA [4] | percentage damage caused to the plant, IPOHE [5] | percentage damage caused to the plant, AMAPA [6] | percentage damage caused to the plant, AMARE [7] | percentage damage caused to the plant, ECHCG [8] | percentage damage caused to the plant, SETFA [9] | percentage damage caused to the plant, IPOHE [10] |
| --- | --- | --- | --- | --- | --- | --- | --- | --- | --- | --- |
| CCO/N=C\CCc1nc(C(F)(F)F)nc2cccc(Oc3ncc(Cl)cn3)c12 [Compound 1.047] | 4 (4=61-80%) | 4 (4=61-80%) | 5 (5=81-100%) | 5 (5=81-100%) | 2 (2=21-40%) | 4 (4=61-80%) | 5 (5=81-100%) | 5 (5=81-100%) | 5 (5=81-100%) | 5 (5=81-100%) |
| FC(F)(F)c1nc(CBr)c2c(Oc3ncc(Cl)cn3)cccc2n1 [Compound 1.048, 4-(bromomethyl)-5-(5-chloropyrimidin-2-yl)oxy-2-(trifluoromethyl)quinazoline] | 5 (5=81-100%) | 5 (5=81-100%) | 3 (3=41-60%) | 4 (4=61-80%) | 1 (1=0-20%) | 4 (4=61-80%) | 5 (5=81-100%) | 2 (2=21-40%) | 4 (4=61-80%) | 2 (2=21-40%) |
| Cc1ccc(Oc2ncc(Cl)cn2)c2c(CCC3CC3)nc(C(F)(F)F)nc12 [Compound 1.059] | 1 (1=0-20%) | 1 (1=0-20%) | 1 (1=0-20%) | 1 (1=0-20%) | 1 (1=0-20%) | 2 (2=21-40%) | 2 (2=21-40%) | 1 (1=0-20%) | 1 (1=0-20%) | 3 (3=41-60%) |
| FC(F)(F)c1nc(CCC2CC2)c2c(Oc3ncc(Cl)cn3)ccc(Br)c2n1 [Compound 1.060] | 2 (2=21-40%) | 1 (1=0-20%) | 1 (1=0-20%) | 2 (2=21-40%) | 1 (1=0-20%) | 3 (3=41-60%) | 3 (3=41-60%) | 1 (1=0-20%) | 2 (2=21-40%) | 3 (3=41-60%) |
| CC(=NOCC1CC1)c1nc(C(F)(F)F)nc2cccc(Oc3ncc(Cl)cn3)c12 [Compound 1.065] | 1 (1=0-20%) | 1 (1=0-20%) | 1 (1=0-20%) | 1 (1=0-20%) | 1 (1=0-20%) | 2 (2=21-40%) | 2 (2=21-40%) | 1 (1=0-20%) | 1 (1=0-20%) | 1 (1=0-20%) |
| CON=C(C)c1nc(C(F)(F)F)nc2cccc(Oc3ncc(Cl)cn3)c12 [Compound 1.066] | 4 (4=61-80%) | 1 (1=0-20%) | 1 (1=0-20%) | 1 (1=0-20%) | 1 (1=0-20%) | 2 (2=21-40%) | 1 (1=0-20%) | 1 (1=0-20%) | 1 (1=0-20%) | 1 (1=0-20%) |
| C=CCON=CCCc1nc(C(F)(F)F)nc2cccc(Oc3ncc(Cl)cn3)c12 [Compound 1.067] | 5 (5=81-100%) | 3 (3=41-60%) | 5 (5=81-100%) | 5 (5=81-100%) | 1 (1=0-20%) | 5 (5=81-100%) | 4 (4=61-80%) | 4 (4=61-80%) | 5 (5=81-100%) | 3 (3=41-60%) |
| FC(F)(F)c1nc(CCC=NOCC2CC2)c2c(Oc3ncc(Cl)cn3)cccc2n1 [Compound 1.068] | 5 (5=81-100%) | 4 (4=61-80%) | 3 (3=41-60%) | 5 (5=81-100%) | 1 (1=0-20%) | 5 (5=81-100%) | 5 (5=81-100%) | 5 (5=81-100%) | 5 (5=81-100%) | 1 (1=0-20%) |
| FC(F)(F)c1nc(-c2ncccn2)c2c(Oc3ncc(Cl)cn3)cccc2n1 [Compound 1.069] | 1 (1=0-20%) | 1 (1=0-20%) | 1 (1=0-20%) | 1 (1=0-20%) | 1 (1=0-20%) | 1 (1=0-20%) | 1 (1=0-20%) | 1 (1=0-20%) | 1 (1=0-20%) | 1 (1=0-20%) |
| O=C(c1ccc(Cl)cn1)c1nc(C(F)(F)F)nc2cccc(Oc3ncc(Cl)cn3)c12 [Compound 1.070] | 5 (5=81-100%) | 5 (5=81-100%) | 1 (1=0-20%) | 1 (1=0-20%) | 1 (1=0-20%) | 1 (1=0-20%) | 2 (2=21-40%) | 1 (1=0-20%) | 1 (1=0-20%) | 1 (1=0-20%) |
| FC(F)(F)CCC(Br)c1nc(C(F)(F)F)nc2cccc(Oc3ncc(Cl)cn3)c12 (centres unmarked) [Compound 1.071] | 5 (5=81-100%) | 5 (5=81-100%) | 5 (5=81-100%) | 5 (5=81-100%) | 1 (1=0-20%) | 5 (5=81-100%) | 5 (5=81-100%) | 5 (5=81-100%) | 4 (4=61-80%) | 3 (3=41-60%) |
